Legend:
Test in all cases: relative viability (nuclei count vs DMSO), 5 days (fraction); higher = more cells survive
Olaparib + Alpelisib = compound: O=C(c1cc(Cc2n[nH]c(=O)c3ccccc23)ccc1F)N1CCN(C(=O)C2CC2)CC1 [Olaparib] + Cc1nc(NC(=O)N2CCC[C@H]2C(N)=O)sc1-c1ccnc(C(C)(C)C(F)(F)F)c1 [Alpelisib] (partner 2 µM)
In short: (§1)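 Lung cancer cell lines in 1536-well plates were dosed by pin tool the day after seeding, either with one drug alone or with a fixed anchor-drug dose plus five library-drug doses (not always all listed) in √10 steps. After 5 days, cells were fixed and their nuclei stained in one step (final 0.05% Triton X-100, 1% formaldehyde, 1 ug/ml Hoechst), then counted on 4× images. Relative viability is the nuclei count in treated wells divided by that in vehicle wells. Values are medians of duplicate plates.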

Crizotinib + Phenformin = compound: C[C@@H](Oc1cc(-c2cnn(C3CCNCC3)c2)cnc1N)c1c(Cl)ccc(F)c1Cl [Crizotinib] + N=C(N)NC(=N)NCCc1ccccc1 [Phenformin] (partner 250 µM)
In short: as §1

Carfilzomib + AZD7762 = compound: CC(C)C[C@H](NC(=O)[C@H](CCc1ccccc1)NC(=O)CN1CCOCC1)C(=O)N[C@@H](Cc1ccccc1)C(=O)N[C@@H](CC(C)C)C(=O)[C@@]1(C)CO1 [Carfilzomib] + NC(=O)Nc1cc(-c2cccc(F)c2)sc1C(=O)N[C@H]1CCCNC1 [AZD7762] (partner 0.2 µM)
In short: as §1

Olaparib + Linsitinib = compound: O=C(c1cc(Cc2n[nH]c(=O)c3ccccc23)ccc1F)N1CCN(C(=O)C2CC2)CC1 [Olaparib] + C[C@]1(O)C[C@@H](c2nc(-c3ccc4ccc(-c5ccccc5)nc4c3)c3c(N)nccn32)C1 [Linsitinib] (partner 1 µM)
In short: as §1

Cell Line	relative viability (Olaparib + Alpelisib; first compound 0.08 µM)	relative viability (Olaparib + Alpelisib; first compound 0.253 µM)	relative viability (Olaparib + Alpelisib; first compound 2.53 µM)	relative viability (Olaparib + Alpelisib; first compound 8 µM)	relative viability (Crizotinib + Phenformin; first compound 0.01 µM)	relative viability (Crizotinib + Phenformin; first compound 0.03162 µM)	relative viability (Crizotinib + Phenformin; first compound 0.1 µM)	relative viability (Crizotinib + Phenformin; first compound 0.3162 µM)	relative viability (Crizotinib + Phenformin; first compound 1 µM)	relative viability (Carfilzomib + AZD7762; first compound 0.001 µM)	relative viability (Carfilzomib + AZD7762; first compound 0.003162 µM)	relative viability (Carfilzomib + AZD7762; first compound 0.01 µM)	relative viability (Carfilzomib + AZD7762; first compound 0.03162 µM)	relative viability (Carfilzomib + AZD7762; first compound 0.1 µM)	relative viability (Olaparib + Linsitinib; first compound 0.08 µM)	relative viability (Olaparib + Linsitinib; first compound 0.253 µM)	relative viability (Olaparib + Linsitinib; first compound 2.53 µM)	relative viability (Olaparib + Linsitinib; first compound 8 µM)
201T	0.985	0.938	1.01	0.98	0.42	0.48	0.455	0.445	0.726	0.67	0.574	0.626	0.591	0.461	1.04	1.01	1.04	1.01
A549	0.822	0.63	0.671	0.589	0.165	0.136	0.167	0.141	0.172						0.761	0.567	0.588	0.436
A-427	1.14	1.06	0.855	0.809	0.303	0.349	0.419		0.28	0.725	0.82	0.696	0.527	0.173	1.12	1.03	1.03	0.851
ABC-1	0.958	1	0.96	0.981		0.22	0.211	0.238	0.269		0.786	0.506		1.01	1.1	0.918	0.644	0.556
BEN	1.02	1.02	1.19	0.995	0.259	0.253	0.256	0.235	0.257	0.717	0.619	0.657	0.59	0.409	0.89	0.749	1.05	0.982
CAL-12T	1.79	1.03	1.25	1.12	0.503	0.609	0.606		0.558	0.607	0.719	0.787	0.586	0.26	1.05	0.751	0.825	0.666
COR-L23	0.811	0.586	0.532	0.357	0.376	0.409	0.426	0.389	0.428						1.09	0.852	0.716	0.432
COR-L 105	1.17	1.02	0.87	0.639	0.384	0.516	0.406	0.431	0.492						1.03	0.804	0.706	0.591
Calu-6	1.08	1.04	0.965	0.729											1.06	0.866	0.824	0.717
ChaGo-K-1					0.457	0.511	0.486	0.329	0.457	0.813	0.898	0.855	0.542	0.152				
EBC-1	0.901	0.794	0.68	0.633											1.07	0.824	0.848	0.751
EKVX	1.11	0.872	0.844	0.903	0.209	0.241	0.238	0.187	0.221	0.318	0.782	0.756		0.761	1.38	0.91	1.01	1.06
EMC-BAC-2	0.737	0.751	0.636	0.621	0.532	0.544	0.569	0.253	0.473	1.13	1.22	1.22	1.06	0.716	0.945	0.792	0.85	0.621
EPLC-272H	1.03	0.871	1.09	0.789	0.261	0.283	0.302	0.29	0.39	0.195	0.253	0.209	0.159	0.0687	1.25	1.11	1.21	1.03
H3255	0.751	0.752	0.652	0.647	0.348	0.424	0.385	0.327	0.334	0.849	0.982	1.13	0.795	0.237	1.04	0.912	0.932	0.825
HARA	0.935	0.728	0.959	0.76	0.468	0.501	0.462		0.47	0.454	0.232	0.398	0.18	0.146	1.07	0.829	1.04	0.792
HCC-15	0.988	0.815	0.905	0.724	0.444	0.475	0.479		0.42	1.12	1.29	1.31	1.12	0.453	0.927	0.828	0.836	0.768
HCC-44	0.89	0.721	0.914	0.839	0.225	0.263	0.264	0.173	0.13	1.01	1.02	1.03	0.988	0.716	0.654	0.562	0.713	0.682
HCC-78	0.424	0.328	0.445	0.365		0.682	0.772	0.598	0.465	0.505	0.772	0.789	0.492	0.311	0.732	0.456	0.533	0.473
HCC-366	0.392	0.31	0.3	0.15	0.597	0.609	0.65		0.695	0.231	0.276	0.251	0.419	0.212	0.67	0.479	0.447	0.303

Cell Line	relative viability (Olaparib + Alpelisib; first compound 0.08 µM)	relative viability (Olaparib + Alpelisib; first compound 0.253 µM)	relative viability (Olaparib + Alpelisib; first compound 2.53 µM)	relative viability (Olaparib + Alpelisib; first compound 8 µM)	relative viability (Crizotinib + Phenformin; first compound 0.01 µM)	relative viability (Crizotinib + Phenformin; first compound 0.03162 µM)	relative viability (Crizotinib + Phenformin; first compound 0.1 µM)	relative viability (Crizotinib + Phenformin; first compound 0.3162 µM)	relative viability (Crizotinib + Phenformin; first compound 1 µM)	relative viability (Carfilzomib + AZD7762; first compound 0.001 µM)	relative viability (Carfilzomib + AZD7762; first compound 0.003162 µM)	relative viability (Carfilzomib + AZD7762; first compound 0.01 µM)	relative viability (Carfilzomib + AZD7762; first compound 0.03162 µM)	relative viability (Carfilzomib + AZD7762; first compound 0.1 µM)	relative viability (Olaparib + Linsitinib; first compound 0.08 µM)	relative viability (Olaparib + Linsitinib; first compound 0.253 µM)	relative viability (Olaparib + Linsitinib; first compound 2.53 µM)	relative viability (Olaparib + Linsitinib; first compound 8 µM)
IA-LM	0.929	0.738	0.76	0.509											0.891	0.391	0.672	0.443
NCI-H520	1.05	0.843	0.814	0.529	0.449	0.682	0.588	0.281	0.45						1.17	0.825	0.872	0.663
NCI-H522					0.702	0.612	0.527	0.768	0.649	0.782	0.901	0.925	0.428	0.337				
NCI-H661	0.87	0.511	0.618	0.455	0.257	0.269	0.285	0.266	0.264						0.773	0.593	0.518	0.573
NCI-H1299	1.03	1	1.07	1.03											1	0.945	0.966	0.943
NCI-H1563	1.04	0.952	0.929	0.973	0.607	0.681	0.655	0.637	0.682						1.22	1.25	1.2	1.2
NCI-H1623					0.557	0.499	0.611	0.608	0.551									
NCI-H1648										0.657	0.621	0.603	0.407	0.268				
NCI-H1650					0.411	0.401	0.387	0.377	0.389									
NCI-H1703	0.45	0.464	0.391	0.412						0.121	0.168	0.128	0.107	0.0623	0.9	0.697	0.881	0.408
NCI-H2009	1.28	1.03	1.09	0.976	0.479	0.492	0.513	0.426	0.458						1.28	1.17	1.09	0.928
NCI-H2023	0.64	0.512	0.58	0.501	0.397	0.406	0.409	0.304	0.322						0.754	0.608	0.535	0.469
NCI-H2170	0.846	0.838	0.849	0.718	0.394	0.443	0.419	0.428	0.423	0.846	0.963	1.02	0.734	0.238				
NCI-H2228	0.746	0.657	0.78	0.534	0.23	0.241	0.29	0.172	0.164						0.686	0.629	0.698	0.434
NCI-H2342					0.512	0.567	0.54	0.549	0.544	0.462	0.513	0.689	0.609	0.347				
SK-LU-1	1.14	0.859	0.837	0.554	0.544	0.535	0.506	0.499	0.547						1.34	0.998	1.02	0.622
SK-MES-1	0.925	0.764	1.02	0.697	0.617	0.676	0.638	0.645	0.593						1.14	0.996	1.05	0.796
SW 900					0.556	0.651	0.652	0.586	0.723		0.67	0.226	0.168	0.206				
SW 1573	0.715	0.667	0.627	0.471	0.418	0.376	0.39	0.302	0.391						0.893	0.889	0.661	0.73
UMC-11	1.08	0.877	0.825	0.409	0.259	0.339	0.321	0.27	0.306						1.03	0.974	0.798	0.504
